Assay results: PMC8272044, “5-Phenoxy Primaquine Analogs and the Tetraoxane Hybrid as Antimalarial Agents” (Molecules, 2021)
Read-outs that look alike come from different tables or passages of the source.

Key:
P. falciparum 3D7 = experiment: In vitro blood antimalarial activity, malaria SYBR green I-based fluorescence (MSF) method; format: cell-based; conditions: Plasmodium falciparum; P. falciparum 3D7, blood stage, 48 h, mean ± SD of three biological repeats
Procedure: P. falciparum strain 3D7 (wild-type drug sensitive strain) was used in this study. This parasite was maintained continuously in vitro in human O+ erythrocytes (4% hematocrit) at 37 °C under 3% CO2 and 90% N2 in RPMI 1640 culture media (Life Technologies Limited, Paisley, UK) containing 2 mM L-Glutamine, 25 mM HEPES (Sigma), pH 7.4, 2g/L NaHCO3, 40 mg/L gentamicin, 0.37 mM hypoxanthine, and supplemented with 5 g/L Albumax I (Life Technologies, Grand Island, NY, USA). Every 3 to 4 days, the parasite culture was synchronized with 5% sorbitol and transferred into complete medium with uninfected erythrocytes. In vitro antimalarial activity was determined by using the malaria SYBR green I-based fluorescence (MSF) method. Briefly, 0.09 mL of cultured 1% ring-stage synchronized parasites and 2% hematocrit were transferred to individual wells of a standard 96-well microtiter plate and in vitro culture continued for 48 h, with 0.01 mL of compound at different concentration in each well. The compounds were first dissolved in DMSO and diluted with RPMI medium to 1% DMSO. The final concentration of DMSO in each well was 0.1%, which caused no effect on the parasite viability. Following 48 h, SYBR Green I solution (0.02 µL of 10,000X SYBR Green I/100 µL of buffer solution consisted of 20 mM Tris 20, pH 7.5, 5 mM EDTA, 0.008% w/v saponin and 0.08% v/v Triton X-100) was then added to each well, and fluorescence signals were measured by spectrofluorometer at ex485/em 535 nm. […] The result of each compound was normalized with control media for the overall background subtraction as 0% and untreated parasite with 0.1% DMSO as 100% control.

hematin polymerization = experiment: Inhibition of hematin polymerization (heme polymerization assay); format: biochemical;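 as to %Inh1: test concentrations in µM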;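 as to %Inh2: test concentrations in µM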;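 as to %Inh3: test concentrations in µM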
Procedure: The ability of the 5-phenoxy primaquine analogs to inhibit hematin polymerization was investigated using a protocol modified from the one described previously. […] After it was left standing for 15 min, Tween 20 (0.5 μM; Sigma) was added. […] The assay was performed in triplicate, and results were expressed as the percentage of inhibition relative to hemozoin formation in a negative control. The IC50 values were obtained from the sigmoidal dose–response curves using nonlinear regression curve fitting analyses with GraphPad Prism version 3.00 software. Each IC50 value is the result of at least three separate experiments.

[1] = tested on: African green monkey kidney fibroblast (Vero cells); experiment: Cytotoxicity by sulforhodamine B (SRB) colorimetric assay; format: cell-based; conditions: Vero CC50 / P. falciparum 3D7 IC50
Description: (§1) A cytotoxicity test of selected analogs against African green monkey kidney fibroblast (Vero cells) was obtained from Bioassay Laboratory, BIOTEC, NSTDA, Thailand. They were maintained continuously in MEM/EBSS medium (Hyclone Laboratories Inc., South Logan, UT, USA), supplemented with 10% heated fetal bovine serum (GE Healthcare, PAA Laboratories GmbH, Pasching, Austria), 2.2 g/L Sodium bicarbonate (Emsure, Merck kGaA, Darmstadt, Germany), and 1% sodium pyruvate (Sigma). […] Then, the cells were fixed with 100 µL of 10% trichloroacetic acid (Sigma) at 4 °C for 45 min, washed, and dried at room temperature overnight. […] Finally, 200 µL of 10× Tris-base was added to each well to dissolve protein-bound dye. The OD was determined at a wavelength of 510 nm. The control media was used for overall background subtraction as 0% and untreated cells as 100% control without any cytotoxic effect. The IC50 value of each compound was determined from the dose–response curve.

[2] = as above; format: cell-based, African green monkey; conditions: African green monkey, Vero cells, 72 h, SRB, mean ± SD of three repeats
Description: as §1

[3] = pH 5.0, mean ± SD of three independent repeats, read-out: IC50, inhibition of hemozoin-initiated hematin polymerization
[4] = primary data, repeat 1, read-out: IC50, heme polymerization inhibition, repeat 1
[5] = primary data, repeat 2, read-out: IC50, heme polymerization inhibition, repeat 2
[6] = primary data, repeat 3, read-out: IC50, heme polymerization inhibition, repeat 3
[7] = Vero cells (kidney fibroblasts)

SMILES | %Inh1 (hematin polymerization; conc 2, repeat 1) [%] | %Inh2 (hematin polymerization; conc 2, repeat 2) [%] | %Inh3 (hematin polymerization; conc 2, repeat 3) [%] | %Inh1 (hematin polymerization; conc 10, repeat 1) [%] | %Inh2 (hematin polymerization; conc 10, repeat 2) [%] | %Inh3 (hematin polymerization; conc 10, repeat 3) [%] | %Inh1 (hematin polymerization; conc 50, repeat 1) [%] | %Inh2 (hematin polymerization; conc 50, repeat 2) [%] | %Inh3 (hematin polymerization; conc 50, repeat 3) [%] | %Inh1 (hematin polymerization; conc 100, repeat 1) [%] | %Inh2 (hematin polymerization; conc 100, repeat 2) [%] | %Inh3 (hematin polymerization; conc 100, repeat 3) [%] | %Inh1 (hematin polymerization; conc 200, repeat 1) [%] | %Inh2 (hematin polymerization; conc 200, repeat 2) [%] | %Inh3 (hematin polymerization; conc 200, repeat 3) [%] | %Inh1 (hematin polymerization; conc 400, repeat 1) [%] | %Inh2 (hematin polymerization; conc 400, repeat 2) [%] | %Inh3 (hematin polymerization; conc 400, repeat 3) [%] | IC50 (hematin polymerization; [3]) [µM] | IC50 (hematin polymerization; [4]) [µM] | also measured
COc1cc(NC(C)CCCN)c2ncccc2c1Oc1ccccc1 (stereo not drawn) [7a, N^4-(6-Methoxy-5-phenoxyquinolin-8-yl)pentane-1,4-diamine] | 0.76 | 8.32 | 5.77 | 4.28 | 12.65 | 9.75 | 19.81 | 31.60 | 24.35 | 50.68 | 59.92 | 49.55 | 89.17 | 88.25 | 88.23 | 101.81 | 100.63 | 95.73 | 102 ± 4.1 | 105 | IC50 (P. falciparum 3D7): 3.65 ± 0.39 µM; IC50 (hematin polymerization; [5]): 96 µM; IC50 (hematin polymerization; [6]): 104 µM; SI, selectivity index = CC50 on Vero cells / IC50 in the blood stage [1]: 10.27; CC50 at 72 h [2, 7]: 37.5 ± 5.24 µM
COc1ccc(Oc2c(OC)cc(NC(C)CCCN)c3ncccc23)cc1 (stereo not drawn) [7b, N^4-(6-Methoxy-5-(4-methoxyphenoxy)quinolin-8-yl)pentane-1,4-diamine] | 2.65 | 5.23 | 1.85 | 5.02 | 7.53 | 11.84 | 15.24 | 19.36 | 16.35 | 40.12 | 39.30 | 42.63 | 67.25 | 67.23 | 71.49 | 94.57 | 90.75 | 98.34 | 160 ± 2.2 | 162 | IC50 (P. falciparum 3D7): 7.89 ± 0.5 µM; IC50 (hematin polymerization; [5]): 160 µM; IC50 (hematin polymerization; [6]): 157 µM; SI, selectivity index = CC50 on Vero cells / IC50 in the blood stage [1]: 7.05; CC50 at 72 h [2, 7]: 55.6 ± 4.34 µM
COc1cc(NC(C)CCCN)c2ncccc2c1Oc1ccc(Br)cc1 (stereo not drawn) [7c, N^4-(5-(4-Bromophenoxy)-6-methoxyquinolin-8-yl) pentane-1,4-diamine] | 7.63 | 6.63 | 1.36 | 8.52 | 5.82 | 7.32 | 12.67 | 18.23 | 10.74 | 31.46 | 32.12 | 38.23 | 63.35 | 63.64 | 61.57 | 90.44 | 88.93 | 90.95 | 175 ± 4.3 | 170 | IC50 (P. falciparum 3D7): 7.03 ± 1.31 µM; IC50 (hematin polymerization; [5]): 181 µM; IC50 (hematin polymerization; [6]): 175 µM; SI, selectivity index = CC50 on Vero cells / IC50 in the blood stage [1]: 6.00; CC50 at 72 h [2, 7]: 42.2 ± 3.25 µM
COc1cc(NC(C)CCCN)c2ncccc2c1Oc1ccc(Cl)cc1 (stereo not drawn) [7d, N^4-(6-Methoxy-5-(4-chlorophenoxy)quinolin-8-yl)pentane-1,4-diamine] | 7.78 | 6.26 | 2.78 | 12.08 | 17.37 | 9.55 | 28.15 | 20.53 | 25.95 | 39.02 | 49.70 | 40.32 | 81.92 | 79.27 | 75.78 | 96.57 | 99.33 | 91.32 | 132 ± 5.3 | 135 | IC50 (P. falciparum 3D7): 8.2 ± 0.83 µM; IC50 (hematin polymerization; [5]): 125 µM; IC50 (hematin polymerization; [6]): 137 µM; SI, selectivity index = CC50 on Vero cells / IC50 in the blood stage [1]: 5.66; CC50 at 72 h [2, 7]: 46.4 ± 5.68 µM
COc1cc(NC(C)CCCN)c2ncccc2c1Oc1ccc(C#N)cc1 (stereo not drawn) [7e, 4-((8-((5-Aminopentan-2-yl)amino)-6-methoxyquinolin-5-yl)oxy)benzonitrile] | 8.32 | 3.87 | 7.94 | 3.78 | 12.84 | 9.43 | 19.32 | 16.35 | 21.70 | 30.12 | 30.64 | 17.31 | 52.26 | 55.89 | 45.17 | 78.42 | 85.27 | 69.64 | 286 ± 11.9 | 291 | IC50 (P. falciparum 3D7): 4.62 ± 0.56 µM; IC50 (hematin polymerization; [5]): 269 µM; IC50 (hematin polymerization; [6]): 297 µM; SI, selectivity index = CC50 on Vero cells / IC50 in the blood stage [1]: >21.65; CC50 at 72 h [2, 7]: > 100 µM
COc1cc(NC(C)CCCN)c2ncccc2c1Oc1ccc(F)cc1 (stereo not drawn) [7f, N^4-(5-(4-Fluorophenoxy)-6-methoxyquinolin-8-yl) pentane-1,4-diamine] | 6.02 | 1.81 | 11.52 | 14.36 | 7.54 | 9.67 | 18.94 | 24.82 | 18.18 | 36.82 | 32.41 | 35.89 | 67.61 | 72.28 | 73.29 | 89.47 | 91.81 | 104.26 | 167 ± 8.6 | 155 | IC50 (P. falciparum 3D7): 4.97 ± 0.4 µM; IC50 (hematin polymerization; [5]): 171 µM; IC50 (hematin polymerization; [6]): 175 µM; SI, selectivity index = CC50 on Vero cells / IC50 in the blood stage [1]: 9.55; CC50 at 72 h [2, 7]: 47.5 ± 3.23 µM
COc1cc(NC(C)CCCN)c2ncccc2c1Oc1ccc(C(N)=O)cc1 (stereo not drawn) [7h, 4-((8-((5-Aminopentan-2-yl)amino)-6-methoxyquinolin-5-yl)oxy)benzamide] | 6.92 | 2.87 | 14.16 | 8.33 | 17.48 | 18.60 | 22.32 | 30.21 | 30.28 | 39.91 | 44.86 | 40.80 | 66.71 | 77.84 | 84.25 | 87.23 | 92.60 | 103.26 | 154 ± 6.4 | 154 | IC50 (P. falciparum 3D7): 13.5 ± 1.57 µM; IC50 (hematin polymerization; [5]): 162 µM; IC50 (hematin polymerization; [6]): 146 µM; SI, selectivity index = CC50 on Vero cells / IC50 in the blood stage [1]: >7.41; CC50 at 72 h [2, 7]: > 100 µM
CCN(CC)CCCC(C)Nc1ccnc2cc(Cl)ccc12 (stereo not drawn) [CQ, chloroquine, reference compound] | 14.98 | 12.22 | 11.21 | 19.21 | 27.67 | 27.09 | 49.80 | 36.78 | 59.78 | 84.80 | 81.20 | 70.36 | 96.36 | 72.73 | 85.74 | 105.70 | 94.31 | 97.41 | 61.2 ± 1.3 | 61.3 | IC50 (hematin polymerization; [5]): 59.6 µM; IC50 (hematin polymerization; [6]): 62.8 µM
Cc1c2ccncc2c(C)c2c1[nH]c1ccccc12 [EPT, ellipticine, reference compound] | – | – | – | – | – | – | – | – | – | – | – | – | – | – | – | – | – | – | – | – | CC50 at 72 h [2]: 5.97 ± 0.14 µM
